In brackets after ≈: the same amount, converted by molar mass.
Experiments:
[1] = tested on: classical pathway of complement; assay: ELISA inhibition of classical pathway complement activation; assay type: biochemical; conditions: read-out: IC50, peptide concentration to reach 50% inhibition of classical pathway complement activation; Table 1
Protocol: Inhibition of complement activation. The ability of the compstatin analogs to inhibit the activation of the classical pathway of complement was assessed by ELISA as described elsewhere (Katragadda et al., 2006, supra; Mallik et al., 2005, supra). The percent inhibition was plotted against the peptide concentration, and the resulting data set was fitted to the logistic dose-response function using Origin 8.0 software. IC50 values were obtained from the fitted parameters that produced the lowest χ2 value. Each analog was assayed at least three times.

[2] = Solubility in WFI and DPBS; UPLC C18 retention time as hydrophobicity; conditions: for solubility at 5 min: pH 7.4; for Hydrophobicity Retention Time: UPLC analysis on a C18 column
Protocol: Approximately 5 mg of each peptide (acetate form) was weighed out into separate LoBind Eppendorf tubes and 50 μL water for injection (WFI) was added to each tube. Each sample was centrifuged at 13000 rpm for 2 min and diluted for measuring the optical density (OD) at 280 nm using a NanoDrop 2000 spectrophotometer (ThermoScientific, Wilmington, Del.). Each concentrated sample was diluted 1:20 into Dulbecco's phosphate buffered saline (DPBS, without potassium and calcium; Invitrogen, Carlsbad, Calif.). The samples were monitored for precipitation, and each sample was vortexed for 5 min and centrifuged at 13000 rpm for 2 min. The OD of each DPBS supernatant was measured to determine peptide concentration at saturation.
In addition, the ultra performance liquid chromatography (UPLC) retention time of these peptides on a C18 column was measured to reflect their apparent relative hydrophobicity (Table 3).

C3b = biological target: T1, C3b (Homo sapiens, UniProt P01024); conditions: value from previous publication (WO2010/127336), cited from earlier work
T1 construct: Biotinylated C3b was captured site-specifically on a streptavidin chip
T1 sequence (P01024 23-667 limits assumed): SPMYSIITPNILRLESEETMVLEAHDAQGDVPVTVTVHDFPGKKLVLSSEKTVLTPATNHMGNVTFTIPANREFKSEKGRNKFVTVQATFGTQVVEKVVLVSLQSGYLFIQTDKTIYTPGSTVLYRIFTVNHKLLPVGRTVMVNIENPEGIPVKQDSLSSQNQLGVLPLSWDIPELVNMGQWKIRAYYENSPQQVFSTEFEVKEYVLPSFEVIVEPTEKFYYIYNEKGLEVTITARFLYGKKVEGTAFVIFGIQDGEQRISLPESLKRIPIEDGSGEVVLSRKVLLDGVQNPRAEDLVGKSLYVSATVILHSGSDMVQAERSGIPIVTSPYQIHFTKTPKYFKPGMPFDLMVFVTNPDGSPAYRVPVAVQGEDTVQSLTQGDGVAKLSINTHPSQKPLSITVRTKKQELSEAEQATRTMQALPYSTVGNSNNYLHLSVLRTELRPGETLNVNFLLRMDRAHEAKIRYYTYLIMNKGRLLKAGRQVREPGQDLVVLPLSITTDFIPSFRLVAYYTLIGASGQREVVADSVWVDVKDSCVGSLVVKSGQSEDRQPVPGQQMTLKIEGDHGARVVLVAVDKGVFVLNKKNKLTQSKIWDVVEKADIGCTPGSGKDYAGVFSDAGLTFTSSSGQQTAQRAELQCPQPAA
T1 sequence (P01024 749-1663 partner limits assumed): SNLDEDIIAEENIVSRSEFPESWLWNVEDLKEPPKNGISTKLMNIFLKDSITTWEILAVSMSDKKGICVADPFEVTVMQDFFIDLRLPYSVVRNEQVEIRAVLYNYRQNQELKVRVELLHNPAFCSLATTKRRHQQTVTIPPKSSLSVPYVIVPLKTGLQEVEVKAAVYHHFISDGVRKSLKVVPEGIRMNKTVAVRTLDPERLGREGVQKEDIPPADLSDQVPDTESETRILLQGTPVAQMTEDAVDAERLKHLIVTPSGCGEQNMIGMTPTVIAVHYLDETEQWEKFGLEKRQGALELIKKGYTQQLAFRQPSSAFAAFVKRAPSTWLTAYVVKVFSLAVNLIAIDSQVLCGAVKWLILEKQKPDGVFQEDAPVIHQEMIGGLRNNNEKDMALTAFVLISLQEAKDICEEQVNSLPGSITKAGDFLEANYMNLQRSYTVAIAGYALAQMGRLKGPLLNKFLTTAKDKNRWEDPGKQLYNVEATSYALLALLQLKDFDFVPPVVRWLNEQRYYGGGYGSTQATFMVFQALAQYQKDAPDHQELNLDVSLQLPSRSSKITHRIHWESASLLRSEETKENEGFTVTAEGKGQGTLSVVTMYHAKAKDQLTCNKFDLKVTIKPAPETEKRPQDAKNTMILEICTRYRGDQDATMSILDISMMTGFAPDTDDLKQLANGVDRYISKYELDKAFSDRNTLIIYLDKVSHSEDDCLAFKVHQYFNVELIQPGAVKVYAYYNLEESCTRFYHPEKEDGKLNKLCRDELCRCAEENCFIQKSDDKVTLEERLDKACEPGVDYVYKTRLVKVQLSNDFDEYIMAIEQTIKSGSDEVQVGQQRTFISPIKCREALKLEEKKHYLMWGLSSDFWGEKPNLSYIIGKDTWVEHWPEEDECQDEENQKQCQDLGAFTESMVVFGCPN

## CC[C@H](C)[C@H](NC(C)=O)C(=O)N[C@H]1CSSC[C@@H](C(=O)N[C@H](C(N)=O)[C@@H](C)O)NC(=O)[C@H](CCCNC(=N)N)NC(=O)[C@H](Cc2c[nH]cn2)NC(=O)[C@H](C)NC(=O)CNC(=O)[C@H](Cc2c[nH]c3ccccc23)NC(=O)[C@H](CC(=O)O)NC(=O)[C@H](CCC(N)=O)NC(=O)[C@H](Cc2cn(C)c3ccccc23)NC(=O)[C@H](C(C)C)NC1=O [4(1MeW), reference compound]
[1]
  IC50: 132 ± 7 nM
[2]; Dulbecco's phosphate buffered saline
  solubility at 5 min: 3500 µg/mL (≈ 2150 µM)
[2]
  Hydrophobicity Retention Time: 5.09 min

## CC[C@H](C)[C@H](NC(C)=O)C(=O)N[C@H]1CSSC[C@@H](C(=O)N(C)[C@H](C(N)=O)[C@@H](C)CC)NC(=O)[C@H](CCCNC(=N)N)NC(=O)[C@H](Cc2c[nH]cn2)NC(=O)[C@H](C)NC(=O)CN(C)C(=O)[C@H](Cc2c[nH]c3ccccc23)NC(=O)[C@H](CC(=O)O)NC(=O)[C@H](CCC(N)=O)NC(=O)[C@H](Cc2cn(C)c3ccccc23)NC(=O)[C@H](C(C)C)NC1=O [Cp20, reference compound]
C3b
  ka: association rate: 1.9 10^6/Ms
  kd: dissociation rate: 4.0 10^−3/s
C3b; read-out: KD: binding constant from SPR
  Kd: 2.4 nM
[2]; Dulbecco's phosphate buffered saline (DPBS)
  solubility at 5 min: 2700 µg/mL (≈ 1620 µM)
[2]
  Hydrophobicity Retention Time: 5.33 min
[2]; water for injection, OD (280 nm) at saturation, acetate form
  Solubility WFI: 13000 µg/mL (≈ 7790 µM)

From US20210032291A1, “Compstatin Analogs With Improved Pharmacokinetic Properties” (The Trustees of the University of Pennsylvania, priority 2011, published 2021)
